From paper PMC10068418 (Journal of Antimicrobial Chemotherapy, 2023)
Several values for one entry are separate records, joined by “and”; a condition that tells them apart may be missing. Identical values can stand only once. Like-named read-outs stand apart in the source and are kept apart here.

Legend:
[1] = system: SARS-CoV-2 hCoV-19/Japan/TY/WK-521 strain; assay: microbe, parasite or virus in culture; assay type: cell-based; details: read-out: CPE EC50
[2] = system: SARS-CoV-2 Delta strain (hCoV-19/Japan/TY11-927/2021); assay type: cell-based; details: read-out: Viral titre EC90
[3] = system: SARS-CoV-2 Omicron BA.1 strain (hCoV-19/Japan/TY38-873/2021); assay type: cell-based; details: read-out: Viral titre EC90
SARS-CoV-2 Omicron BA.2 = system: SARS-CoV-2 Omicron BA.2; set-up: species or system Syrian hamsters; details: hamster, in vivo
SARS-CoV-2 = details: Phase 2a and Phase 2b studies; cited from earlier work
in vitro [4] = details: female, BALB/cAJcl, mouse, serum
in vitro [5] = details: male, Syrian, hamster, serum
[6] = Protein binding of nirmatrelvir in mouse serum by equilibrium dialysis; assay type: in vitro ADME, BALB/cAJcl mice; details: female, BALB/cAJcl, pH 7.4
[7] = Protein binding of nirmatrelvir in hamster serum by equilibrium dialysis; assay type: in vitro ADME, Syrian hamsters; details: male, Syrian, pH 7.4
[8] = BALB/cAJcl, mouse, in vivo
[9] = Severe acute respiratory syndrome coronavirus 2, HEK-293T, 72 h

Question: With CCC(CC)COC(=O)[C@H](C)N[P@](=O)(OC[C@H]1O[C@@](C#N)(c2ccc3c(N)ncnn23)[C@H](O)[C@@H]1O)Oc1ccccc1 [Remdesivir, remdesivir] as the compound, how does the EC50 [1, 9] read?
Answer: The EC50 was 0.012 ± 0.002 µM.

Question: For O=c1nc(NO)ccn1[C@@H]1O[C@H](CO)[C@@H](O)[C@H]1O [NHC, β-D-N^4-hydroxycytidine], which EC50 [1] is on record?
Answer: The EC50 was 4 ± 3.5 µM.

Question: What about the EC90 [2] of the same compound?
Answer: The EC90 was 3.83 µM and 6.72 µM.

Question: And the EC90 [3]?
Answer: The EC90 was 2.35 µM and 3.66 µM.

Question: With Cn1cnc(Cn2c(=O)[nH]/c(=N\c3cc4cn(C)nc4cc3Cl)n(Cc3cc(F)c(F)cc3F)c2=O)n1 [Ensitrelvir, ensitrelvir fumaric acid] as the compound, how does the EC50 [1, 9] read?
Answer: Its EC50 is 0.027 ± 0.002 µM.

Question: What about the “Antiviral activity in the lungs (viral titres)” value (SARS-CoV-2 Omicron BA.2) of the same compound?
Answer: Its value is “failed to show antiviral activity”.

Question: And the “Antiviral activity in the nasal turbinates compared with that of nirmatrelvir” value (SARS-CoV-2 Omicron BA.2)?
Answer: The value was “greater antiviral activity”.

Question: What about the “Lowering of lung viral titres compared with 750/250 mg/kg nirmatrelvir” value (SARS-CoV-2 Omicron BA.2) of the same compound?
Answer: Its value is “less effective”.

Question: And the “Viral titres in nasal lavage fluid” value (SARS-CoV-2)?
Answer: Its value is “significantly reduced viral titres”.

Question: What about the fraction unbound (in vitro [4]) of the same compound?
Answer: The fraction unbound was 0.024.

Question: What about the fraction unbound (in vitro [5]) of the same compound?
Answer: Its fraction unbound is 0.017.

Question: With CC(C)(C)[C@H](NC(=O)C(F)(F)F)C(=O)N1C[C@H]2[C@@H]([C@H]1C(=O)N[C@H](C#N)C[C@@H]1CCNC1=O)C2(C)C [Nirmatrelvir, nirmatrelvir] as the compound, how does the EC50 [1, 9] read?
Answer: The EC50 was 0.041 ± 0.013 µM.

Question: What about the fraction unbound at 24 h, 4 µM [6] of the same compound?
Answer: The fraction unbound at 24 h, 4 µM was 0.669.

Question: And the fraction unbound at 24 h, 4 µM [7]?
Answer: Its fraction unbound at 24 h, 4 µM is 0.596.

Question: What about the “f-C24h unbound drug plasma concentration” value [8] of the same compound?
Answer: The value was 676 ± 609 ng/mL.

Question: And the “f-C72h unbound drug plasma concentration” value [8]?
Answer: The value was 1490 ± 430 ng/mL.

Question: And the “t-C24h total plasma concentration” value [8]?
Answer: Its value is 1010 ± 910 ng/mL.

Question: What about the “t-C48h total plasma concentration” value [8] of the same compound?
Answer: The value was 2050 ± 610 ng/mL.

Question: And the “t-C72h total plasma concentration” value [8]?
Answer: The value was 2230 ± 650 ng/mL.
